US4643991A (The University of Kentucky Research Foundation, priority 1984, dated 1987)
Like-named read-outs stand apart in the source and are kept apart here. Each block holds one compound with its values, some of them ahead of it.

What was measured:
[1] = target: porcine pancreatic elastase (Sus scrofa, UniProt P00772); test: Inhibition of porcine pancreatic (PP) elastase in vitro, substrate BOC-Ala-ONp, Lineweaver-Burk and Dixon plots; type: biochemical; conditions: for PPE (inhibitory activity towards PP elastase): Table 4
porcine pancreatic elastase, sequence (P00772 27-266): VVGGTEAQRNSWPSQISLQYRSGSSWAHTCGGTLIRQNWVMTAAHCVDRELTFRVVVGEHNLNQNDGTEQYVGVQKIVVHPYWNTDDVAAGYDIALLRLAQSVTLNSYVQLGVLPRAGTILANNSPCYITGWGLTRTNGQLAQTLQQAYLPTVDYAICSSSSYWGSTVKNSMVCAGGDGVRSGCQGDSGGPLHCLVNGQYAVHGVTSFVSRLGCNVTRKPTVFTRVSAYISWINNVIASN
Method: As pointed out above, the compounds of the invention are useful as elastase inhibitors. To evaluate the compounds, the inhibitory activity of the compounds were tested in vitro against the serine dependent proteolytic enzymes, trypsin, chymotrypsin and porcine pancreatic elastase. All three enzymes belong to the family of serine proteases where the catalytic residues are composed of a triad of amino acid residues, serine, histidine and aspartic acid that actually perform the peptide bond hydrolysis. In addition to the catalytic residues, the active site is composed of an extended substrate binding site that consists of a primary substrate binding site S1, and various subsites on either side of the scissile bond.
The rate and extent of inhibition could be effected by varying the structure of R and R'. As shown from kinetic parameters when R is p-nitrophenol, and R' was varied, all the peptidyl carbamates inhibited PP elastase except when R' was a tert-butyl group. […] In all cases the inhibition was specific and competitive. […] Moreover, the nature of the protecting group (P5) seemed to affect the affinity of the inhibitor for the enzyme. In all these cases the inhibition was studied at different substrate and inhibitor concentrations and the mode of inhibition determined from Lineweaver-Burk and Dixon plots. Ki values were calculated from the latter. […] The enzymatic activity of PP elastase after treatment with the inhibitor(s) was also tested using the natural substrate elastin-congored.

HL elastase = target: T1, HL elastase (Homo sapiens, UniProt P08246); test: Inhibition of human leukocyte (HL) elastase; type: biochemical; conditions: Table 4; [E] = 0.61 μM
T1 sequence (P08246 30-267): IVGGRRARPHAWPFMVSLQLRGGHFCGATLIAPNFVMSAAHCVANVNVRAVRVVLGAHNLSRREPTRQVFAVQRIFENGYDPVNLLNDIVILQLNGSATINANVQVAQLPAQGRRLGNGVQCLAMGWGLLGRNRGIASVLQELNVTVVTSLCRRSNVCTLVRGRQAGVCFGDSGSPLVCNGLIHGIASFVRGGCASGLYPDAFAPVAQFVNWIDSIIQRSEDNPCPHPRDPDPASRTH

[2] = Table 1, changes in P1', PP elastase, read-out: Ki
[3] = Table 1, changes in P1', [E] = 0.61 μM
[4] = Table 2, changes in P1, [E] = 0.61 μM
[5] = Table 3, variations in P5 and P3

Km ([1]; substrate of PP elastase assay): 4.8 mM
Compound: C[C@H](NC(=O)OC(C)(C)C)C(=O)Oc1ccc([N+](=O)[O-])cc1 [BOC-Ala-ONp, reference compound]

Hydrolysis by PP elastase ([1]; detected by the release of p-nitrophenol): hydrolysis of 6 by PP elastase
Compound: CC(C)N(CC(=O)[C@@H]1CCCN1C(=O)OC(C)(C)C)C(=O)Oc1ccc([N+](=O)[O-])cc1 [Compound 6, p-Nitrophenyl N-(N'-t-Boc-L-prolyl)Methyl-N-Isopropylcarbamate]

Ki [1, 2]: 42.5 µM
Comments (inhibition of PP elastase) [1, 3]: +
Comments (inhibition of PP elastase) [1, 4]: +
Compound: COC(=O)CCC(=O)N[C@@H](C)C(=O)N[C@@H](C)C(=O)N1CCC[C@H]1C(=O)CN(C(=O)Oc1ccc([N+](=O)[O-])cc1)C(C)C [Compound 10, p-Nitrophenyl N-(Methy Succinyl-L-Alanyl-L-Alanyl-L-Prolymethyl)-N-Isopropyl Carbamate]

Ki [1, 2]: 32.5 µM
Comments (inhibition of PP elastase) [1, 3]: +
Compound: COC(=O)CCC(=O)N[C@@H](C)C(=O)N[C@@H](C)C(=O)N1CCC[C@H]1C(=O)CN(C(=O)Oc1ccccc1)C(C)C [Compound 11, Phenyl N-(Methyl Succinyl-L-Alanyl-L-Alanyl-L-Prolyl Methyl)-N-Isopropyl Carbamate]

Compound: COC(=O)CCC(=O)N[C@@H](C)C(=O)N[C@@H](C)C(=O)N1CCC[C@H]1C(=O)CN(C(=O)Sc1nnnn1C)C(C)C [Compound 18]
Ki [1, 2]: 14.8 µM
Comments (inhibition of PP elastase) [1, 3]: +

Ki ([1]; Table 2, changes in P1, PP elastase, read-out: Ki): 30.5 µM
Comments (inhibition of PP elastase) [1, 4]: +
Compound: CCCN(CC(=O)[C@@H]1CCCN1C(=O)[C@H](C)NC(=O)[C@H](C)NC(=O)CCC(=O)OC)C(=O)Oc1ccc([N+](=O)[O-])cc1 [Compound 29, P-Nitrophenyl N-(methyl succinyl-L-alanyl-L-alanyl-L-prolylmethyl) N-propylcarbamate]

Comments (inhibition of PP elastase) [1, 4]: +
Compound: COC(=O)CCC(=O)N[C@@H](C)C(=O)N[C@@H](C)C(=O)N1CCC[C@H]1C(=O)CN(C(=O)Oc1ccc([N+](=O)[O-])cc1)C1CC1 [Compound 32, P-Nitrophenyl N-(methyl succinyl-L-alanyl-L-analyl-L-prolylmethyl)-N-cyclopropylcarbamate]

Compound: COC(=O)CCC(=O)N[C@@H](C)C(=O)N[C@@H](C)C(=O)N1CCC[C@H]1C(=O)CN(CC(C)C)C(=O)Oc1ccc([N+](=O)[O-])cc1 [Compound 47, p-Nitrophenyl N-(methylsuccinyl-L-alanyl-L-alanyl-L-prolylmethyl)-N-(2-methyl)propylcarbamate]
PPE (inhibitory activity towards PP elastase) ([1]; [E] = 0.61 μM): - (No inhibition at [I] < 150 μM using [E] = 0.61 μM.)

Compound: COC(=O)CCC(=O)N[C@@H](C)C(=O)N[C@@H](C)C(=O)N1CCC[C@H]1C(=O)CN(Cc1ccccc1)C(=O)Oc1ccc([N+](=O)[O-])cc1 [Compound 51, P-Nitrophenyl N-(methyl succinyl-L-alanyl-L-alanyl-L-prolylmethyl)-N-phenylmethylcarbamate]
PPE (inhibitory activity towards PP elastase) ([1]; [E] = 0.61 μM): - (No inhibition at [I] < 150 μM using [E] = 0.61 μM.)
HLE (inhibitory activity towards HL elastase) (HL elastase): - (No inhibition at [I] < 150 μM using [E] = 0.61 μM.)

Compound: COC(=O)CCC(=O)N[C@@H](C)C(=O)N[C@@H](C)C(=O)N1CCC[C@H]1C(=O)CN(C(=O)Oc1ccc([N+](=O)[O-])cc1)C1CCCCC1 [Compound 55, P-Nitrophenyl N-(methyl succinyl-L-alanyl-L-alanyl-L-prolylmethyl)-N-cyclohexylcarbamate]
PPE (inhibitory activity towards PP elastase) ([1]; [E] = 0.61 μM): - (No inhibition at [I] < 150 μM using [E] = 0.61 μM.)
HLE (inhibitory activity towards HL elastase) (HL elastase): - (No inhibition at [I] < 150 μM using [E] = 0.61 μM.)

Ki [1, 2]: 37.5 µM
Comments (inhibition of PP elastase) [1, 3]: +
Comments (inhibition of PP elastase) [1, 5]: +
Compound: COC(=O)CCC(=O)N[C@@H](C)C(=O)N[C@@H](C)C(=O)N1CCC[C@H]1C(=O)CN(C(=O)Oc1c(F)c(F)c(F)c(F)c1F)C(C)C [Compound 58, Pentafluorophenyl N-(methyl succinyl-L-analyl-L-alanyl-L-prolymethyl)-N-isopropyl-carbamate]

Compound: COC(=O)CCC(=O)N[C@@H](C)C(=O)N[C@@H](C)C(=O)N1CCC[C@H]1C(=O)CN(C(=O)OCC(F)(F)C(F)(F)C(F)(F)F)C(C)C [Compound 61, Heptafluorobutyl N-(methyl succinyl-L-alanyl-L-alanyl-L-prolylmethyl)-N-isopropylcarbamate]
Comments (inhibition of PP elastase) [1, 3]: +

Compound: COC(=O)CCC(=O)N[C@@H](C)C(=O)N[C@@H](C)C(=O)N1CCC[C@H]1C(=O)CN(C)C(=O)Oc1ccc([N+](=O)[O-])cc1 [Compound 68, p-Nitropheny N-(methyl succinyl-L-alanyl-L-alanyl-L-prolymethyl)-N-methyl-carbamate]
Comments (inhibition of PP elastase) [1, 4]: +

Compound: COC(=O)CCC(=O)N[C@@H](C)C(=O)N[C@@H](C)C(=O)N1CCC[C@H]1C(=O)CN(C(=O)Oc1ccc([N+](=O)[O-])cc1)C(C)(C)C [Compound 72]
Comments (inhibition of PP elastase) [1, 4]: - (NO INHIBITION OF PP ELASTASE AT [I] < 150 μM USING [E] = 0.61 μM)

Compound: CC(C)N(CC(=O)[C@@H]1CCCN1C(=O)[C@H](C)NC(=O)[C@H](C)NC(=O)C(F)(F)F)C(=O)Oc1c(F)c(F)c(F)c(F)c1F [Compound 93, Pentafluorophenyl N-(trifluoroacetyl-L-alanyl-L-alanyl-L-prolylmethyl)-N-isopropylcarbamate]
Ki [1]: 49 µM
Comments (inhibition of PP elastase) [1, 5]: +
